Experiments:
Assay in all cases: relative viability (nuclei count vs DMSO), 5 days (fraction); higher = more cells survive
[1] = compound: CCc1cnn2c(NCc3ccc[n+]([O-])c3)cc(N3CCCC[C@H]3CCO)nc12 [Dinaciclib] + NC(=O)Nc1cc(-c2cccc(F)c2)sc1C(=O)N[C@H]1CCCNC1 [AZD7762] (partner 0.2 µM)
In short: (§1)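 Lung cancer cell lines in 1536-well plates were dosed by pin tool the day after seeding, either with one drug alone or with a fixed anchor-drug dose plus five library-drug doses (not always all listed) in √10 steps. After 5 days, cells were fixed and their nuclei stained in one step (final 0.05% Triton X-100, 1% formaldehyde, 1 ug/ml Hoechst), then counted on 4× images. Relative viability is the nuclei count in treated wells divided by that in vehicle wells. Values are medians of duplicate plates.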

[2] = compound: CCc1cnn2c(NCc3ccc[n+]([O-])c3)cc(N3CCCC[C@H]3CCO)nc12 [Dinaciclib] + CC(=O)Nc1cccc(-n2c(=O)n(C3CC3)c(=O)c3c(Nc4ccc(I)cc4F)n(C)c(=O)c(C)c32)c1 [Trametinib] (partner 0.02 µM)
In short: as §1

[3] = compound: CCc1cnn2c(NCc3ccc[n+]([O-])c3)cc(N3CCCC[C@H]3CCO)nc12 [Dinaciclib] + CCNC(=O)c1noc(-c2cc(C(C)C)c(O)cc2O)c1-c1ccc(CN2CCOCC2)cc1 [Luminespib] (partner 0.01 µM)
In short: as §1

[4] = compound: CCc1cnn2c(NCc3ccc[n+]([O-])c3)cc(N3CCCC[C@H]3CCO)nc12 [Dinaciclib] + CC1(C)CCC(c2ccc(Cl)cc2)=C(CN2CCN(c3ccc(C(=O)NS(=O)(=O)c4ccc(N[C@H](CCN5CCOCC5)CSc5ccccc5)c(S(=O)(=O)C(F)(F)F)c4)cc3)CC2)C1 [Navitoclax] (partner 0.5 µM)
In short: as §1

[5] = compound: CCc1cnn2c(NCc3ccc[n+]([O-])c3)cc(N3CCCC[C@H]3CCO)nc12 [Dinaciclib] + Nc1ncn([C@H]2C[C@H](O)[C@@H](CO)O2)c(=O)n1 [Decitabine] (partner 2 µM)
In short: as §1

LCLC-97TM1
relative viability ([1]; first compound 0.009487 µM): 0.385 | relative viability ([1]; first compound 0.03 µM): 0.0625 | relative viability ([1]; first compound 0.09487 µM): 0.0497 | relative viability ([1]; first compound 0.3 µM): 0.0774 | relative viability ([2]; first compound 0.009487 µM): 0.216 | relative viability ([2]; first compound 0.03 µM): 0.0795 | relative viability ([2]; first compound 0.09487 µM): 0.0706 | relative viability ([2]; first compound 0.3 µM): 0.0687 | relative viability ([3]; first compound 0.009487 µM): 0.459 | relative viability ([3]; first compound 0.03 µM): 0.111 | relative viability ([3]; first compound 0.09487 µM): 0.116 | relative viability ([3]; first compound 0.3 µM): 0.109 | relative viability ([4]; first compound 0.009487 µM): 0.44 | relative viability ([4]; first compound 0.03 µM): 0.108 | relative viability ([4]; first compound 0.09487 µM): 0.162 | relative viability ([4]; first compound 0.3 µM): 0.114 | relative viability ([5]; first compound 0.009487 µM): 0.167 | relative viability ([5]; first compound 0.03 µM): 0.0798 | relative viability ([5]; first compound 0.09487 µM): 0.0518 | relative viability ([5]; first compound 0.3 µM): 0.0627

LK-2
relative viability ([1]; first compound 0.009487 µM): 0.448 | relative viability ([1]; first compound 0.03 µM): 0.116 | relative viability ([1]; first compound 0.09487 µM): 0.0518 | relative viability ([1]; first compound 0.3 µM): 0.0532 | relative viability ([2]; first compound 0.009487 µM): 0.574 | relative viability ([2]; first compound 0.03 µM): 0.152 | relative viability ([2]; first compound 0.09487 µM): 0.133 | relative viability ([2]; first compound 0.3 µM): 0.125 | relative viability ([3]; first compound 0.009487 µM): 0.165 | relative viability ([3]; first compound 0.03 µM): 0.139 | relative viability ([3]; first compound 0.09487 µM): 0.166 | relative viability ([3]; first compound 0.3 µM): 0.162 | relative viability ([4]; first compound 0.009487 µM): 0.761 | relative viability ([4]; first compound 0.03 µM): 0.123 | relative viability ([4]; first compound 0.09487 µM): 0.0967 | relative viability ([4]; first compound 0.3 µM): 0.102 | relative viability ([5]; first compound 0.009487 µM): 0.27 | relative viability ([5]; first compound 0.03 µM): 0.119 | relative viability ([5]; first compound 0.09487 µM): 0.0855 | relative viability ([5]; first compound 0.3 µM): 0.0805

LOU-NH91
relative viability ([1]; first compound 0.009487 µM): 0.7 | relative viability ([1]; first compound 0.03 µM): 0.296 | relative viability ([1]; first compound 0.09487 µM): 0.252 | relative viability ([1]; first compound 0.3 µM): 0.272 | relative viability ([2]; first compound 0.009487 µM): 0.756 | relative viability ([2]; first compound 0.03 µM): 0.405 | relative viability ([2]; first compound 0.09487 µM): 0.281 | relative viability ([2]; first compound 0.3 µM): 0.264 | relative viability ([3]; first compound 0.009487 µM): 0.324 | relative viability ([3]; first compound 0.03 µM): 0.294 | relative viability ([3]; first compound 0.09487 µM): 0.224 | relative viability ([3]; first compound 0.3 µM): 0.16 | relative viability ([4]; first compound 0.009487 µM): 0.707 | relative viability ([4]; first compound 0.03 µM): 0.254 | relative viability ([4]; first compound 0.09487 µM): 0.151 | relative viability ([4]; first compound 0.3 µM): 0.138 | relative viability ([5]; first compound 0.009487 µM): 0.642 | relative viability ([5]; first compound 0.03 µM): 0.434 | relative viability ([5]; first compound 0.09487 µM): 0.269 | relative viability ([5]; first compound 0.3 µM): 0.271

LU99A
relative viability ([1]; first compound 0.009487 µM): 0.322 | relative viability ([1]; first compound 0.03 µM): 0.11 | relative viability ([1]; first compound 0.09487 µM): 0.106 | relative viability ([1]; first compound 0.3 µM): 0.115 | relative viability ([2]; first compound 0.009487 µM): 0.511 | relative viability ([2]; first compound 0.03 µM): 0.14 | relative viability ([2]; first compound 0.09487 µM): 0.127 | relative viability ([2]; first compound 0.3 µM): 0.146 | relative viability ([3]; first compound 0.009487 µM): 0.177 | relative viability ([3]; first compound 0.03 µM): 0.149 | relative viability ([3]; first compound 0.09487 µM): 0.12 | relative viability ([3]; first compound 0.3 µM): 0.124 | relative viability ([4]; first compound 0.009487 µM): 0.363 | relative viability ([4]; first compound 0.03 µM): 0.13 | relative viability ([4]; first compound 0.09487 µM): 0.126 | relative viability ([4]; first compound 0.3 µM): 0.121 | relative viability ([5]; first compound 0.009487 µM): 0.793 | relative viability ([5]; first compound 0.03 µM): 0.145 | relative viability ([5]; first compound 0.09487 µM): 0.13 | relative viability ([5]; first compound 0.3 µM): 0.149

LXF-289
relative viability ([1]; first compound 0.009487 µM): 1.18 | relative viability ([1]; first compound 0.03 µM): 0.453 | relative viability ([1]; first compound 0.09487 µM): 0.0752 | relative viability ([1]; first compound 0.3 µM): 0.0836 | relative viability ([2]; first compound 0.009487 µM): 0.682 | relative viability ([2]; first compound 0.03 µM): 0.307 | relative viability ([2]; first compound 0.09487 µM): 0.0823 | relative viability ([2]; first compound 0.3 µM): 0.103 | relative viability ([3]; first compound 0.009487 µM): 0.642 | relative viability ([3]; first compound 0.03 µM): 0.106 | relative viability ([3]; first compound 0.09487 µM): 0.068 | relative viability ([3]; first compound 0.3 µM): 0.0731 | relative viability ([4]; first compound 0.009487 µM): 0.921 | relative viability ([4]; first compound 0.03 µM): 0.189 | relative viability ([4]; first compound 0.09487 µM): 0.0659 | relative viability ([4]; first compound 0.3 µM): 0.0645 | relative viability ([5]; first compound 0.009487 µM): 0.356 | relative viability ([5]; first compound 0.03 µM): 0.293 | relative viability ([5]; first compound 0.09487 µM): 0.109 | relative viability ([5]; first compound 0.3 µM): 0.0948

NCI-H23
relative viability ([1]; first compound 0.009487 µM): 0.246 | relative viability ([1]; first compound 0.03 µM): 0.125 | relative viability ([1]; first compound 0.09487 µM): 0.107 | relative viability ([1]; first compound 0.3 µM): 0.0921 | relative viability ([2]; first compound 0.009487 µM): 0.305 | relative viability ([2]; first compound 0.03 µM): 0.164 | relative viability ([2]; first compound 0.09487 µM): 0.13 | relative viability ([2]; first compound 0.3 µM): 0.122 | relative viability ([3]; first compound 0.009487 µM): 0.197 | relative viability ([3]; first compound 0.03 µM): 0.172 | relative viability ([3]; first compound 0.09487 µM): 0.168 | relative viability ([3]; first compound 0.3 µM): 0.148 | relative viability ([4]; first compound 0.009487 µM): 0.74 | relative viability ([4]; first compound 0.03 µM): 0.173 | relative viability ([4]; first compound 0.09487 µM): 0.113 | relative viability ([4]; first compound 0.3 µM): 0.12 | relative viability ([5]; first compound 0.009487 µM): 0.242 | relative viability ([5]; first compound 0.03 µM): 0.216 | relative viability ([5]; first compound 0.09487 µM): 0.14 | relative viability ([5]; first compound 0.3 µM): 0.135

NCI-H322M
relative viability ([1]; first compound 0.009487 µM): 0.613 | relative viability ([1]; first compound 0.03 µM): 0.409 | relative viability ([1]; first compound 0.09487 µM): 0.42 | relative viability ([1]; first compound 0.3 µM): 0.394 | relative viability ([2]; first compound 0.009487 µM): 0.623 | relative viability ([2]; first compound 0.03 µM): 0.36 | relative viability ([2]; first compound 0.09487 µM): 0.341 | relative viability ([2]; first compound 0.3 µM): 0.391 | relative viability ([3]; first compound 0.009487 µM): 0.431 | relative viability ([3]; first compound 0.03 µM): 0.243 | relative viability ([3]; first compound 0.09487 µM): 0.265 | relative viability ([3]; first compound 0.3 µM): 0.229 | relative viability ([4]; first compound 0.009487 µM): 1.27 | relative viability ([4]; first compound 0.03 µM): 1.2 | relative viability ([4]; first compound 0.09487 µM): 0.587 | relative viability ([4]; first compound 0.3 µM): 0.205 | relative viability ([5]; first compound 0.009487 µM): 0.713 | relative viability ([5]; first compound 0.03 µM): 0.441 | relative viability ([5]; first compound 0.09487 µM): 0.416 | relative viability ([5]; first compound 0.3 µM): 0.348

Source: the supplement of paper PMC10307832
